# Laboratory results taken from ChEMBL document CHEMBL1140752, “High confidence predictions of drug-drug interactions: predicting affinities for cytochrome P450 2C9 with multiple computational methods” (J Med Chem, 2008).
# pKi: −log10 of the molar value.
# Molecular target: Cytochrome P450 2C9 (Homo sapiens, UniProt P11712)
# Experiment: Inhibition of CYP2C9
# Type: ADME
# Cytochrome P450 2C9, sequence (P11712 whole entry): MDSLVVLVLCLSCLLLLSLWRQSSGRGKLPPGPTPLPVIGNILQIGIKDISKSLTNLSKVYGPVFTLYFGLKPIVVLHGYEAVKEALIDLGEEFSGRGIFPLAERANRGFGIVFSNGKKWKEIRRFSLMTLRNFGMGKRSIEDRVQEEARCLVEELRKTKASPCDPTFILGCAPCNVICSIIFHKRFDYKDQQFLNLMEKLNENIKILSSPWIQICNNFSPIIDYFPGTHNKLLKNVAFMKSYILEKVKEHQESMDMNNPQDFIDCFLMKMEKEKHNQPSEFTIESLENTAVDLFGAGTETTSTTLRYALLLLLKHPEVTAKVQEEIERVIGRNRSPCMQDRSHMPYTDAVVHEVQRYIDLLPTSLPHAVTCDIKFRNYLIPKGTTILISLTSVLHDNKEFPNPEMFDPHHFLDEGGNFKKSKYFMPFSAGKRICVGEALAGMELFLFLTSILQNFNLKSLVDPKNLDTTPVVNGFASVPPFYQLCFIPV
smiles,measurement,value
CCc1oc2ccccc2c(=O)c1C(=O)c1cc(Br)c(O)c(Br)c1,pKi,7.00
